Measurements taken from patent publication US20260191986A1, “LIPOSOME-BASED DRUG CARRIER FOR IMMUNE ANTICANCER THERAPY AND METHOD FOR PRODUCING SAME” (KONKUK UNIVERSITY INDUSTRIAL COOPERATION CORP, priority 2022, published 2026).

What was measured:
[1] = test system: MDA-MB-231 cells; assay: Extracellularly released ATP (ICD biomarker) after DOX or CIS; format: cell-based, human; details: different concentrations of drug
Procedure: (§1) First, the efficacy of doxorubicin (DOX) as a potent ICD inducer in a breast cancer 4T1 tumor model and cancer cells was tested by monitoring the change in the TME (tumor microenvironment). To validate the immunogenic effect of DOX, immunogenic cell death (ICD) biomarkers, such as extracellularly released ATP and cell surface expressing CRT, were monitored in breast cancer cells (human: MDA-MB-231 cells; mouse: 4T1 cells) treated with different concentrations of DOX and cisplatin (CIS), a non-ICD inducer, as a comparative control group.

[2] = test system: IDO1; assay: IDO1 expression in tumors obtained by vaccine approach; format: in vivo, Balb/c mice; details: mice vaccinated with drug-treated 4T1 cells
Procedure: (§2) The effect of DOX-induced ICD in Balb/c mice was further validated by vaccine approach. Dead 4T1 cells were subcutaneously injected into one flank of Balb/c mice together with an anticancer agent such as DOX (30 μM) or CIS (100 μM), or phosphate-buffered saline (PBS; control), twice for 2 weeks, with a 1-week interval. At two weeks after the first injection, live 4T1 cancer cells were injected into the opposite flank and the change in tumor size was evaluated for 25 days.
(§3) Subsequently, it was investigated whether the DOX-induced ICD can induce the expression of IDO1 in a breast cancer mouse model as an indicator of the immune evasion mechanism in TME. In order to investigate the relationship between the expression of ICD and IDO1 in TME, the expression level of IDO1 in the tumors obtained by vaccine approach was investigated, and the result is shown in FIG. 4. […] Meanwhile, it was confirmed that the DOX-induced ICD upregulates IDO1 expression in tumor tissues via the immune evasion mechanism.

[3] = test system: 4T1 cells; assay: Vaccine approach: tumor growth in Balb/c mice vaccinated with drug-treated dead 4T1 cells; format: in vivo; details: DOX 30 μM or CIS 100 μM; live 4T1 cells in opposite flank; 25 days
Procedure: as §2

[4] = test system: 4T1 cells; assay: Extracellularly released ATP (ICD biomarker) after DOX or CIS; format: cell-based, mouse; details: different concentrations of drug
Procedure: as §1

[5] = test system: MDA-MB-231 cells; assay: Cell surface CRT expression (ICD biomarker) after DOX or CIS; format: cell-based, human; details: different concentrations of drug
Procedure: as §1

[6] = test system: 4T1 cells; assay: as above; format: cell-based, mouse; details: different concentrations of drug
Procedure: as §1

[7] = test system: MDA-MB-231; assay: Cytotoxicity (cell survivability); format: cell-based, human; details: 24 hours and 36 hours
Procedure: (§4) Next, the cytotoxicity by an anticancer agent delivered together with Aptm [DOX/IDO1] was evaluated, and the result is shown in FIG. 16. Breast cancer cells (MDA-MB-231 and 4T1) and control group liver cells (HepG2) were treated with free DOX, Lipm [DOX/IDO1] and Aptm [DOX/IDO1] for 24 hours and 36 hours.

[8] = test system: TNFα; assay: TNFα secretion in the tumor of 4T1 tumor xenograft mice; details: mouse, in vivo
Procedure: As the effect of Aptm [DOX/IDO1] on the control of tumor microenvironment (TME), cell death, ICD marker, immune cell ratio and TNF secretion in the tumor tissue of 4T1 tumor xenograft mice were evaluated. In order to investigate DOX-induced apoptotic cell death, TUNEL assay was conducted with the tumor tissues of 4T1 tumor xenograft mice.
(§5) The effective inhibition of tumor growth improves anticancer immune response by reversing immunosuppressive TME to immunoresponsive TME in vivo by Aptm [DOX/IDO1]. In order to investigate whether tumor size reduction and TME control are mediated by IDO1 siRNA delivered to the 4T1 tumor xenograft mice, the IDO1 expression level in the tumor tissue of the mice was analyzed on day 24, and the result is shown in FIG. 20. The IDO1 expression level in the tumor obtained from the mice treated with free DOX was increased as compared to the IDO1 expression level in the tumor obtained from the mice treated with saline. […] In the tumor, the IDO1 expression was increased by the administration of Aptm [DOX/Ctr] lacking IDO1 siRNA. It is thought that the increased IDO1 expression is due to the improved ICD against the tumor due to the effective delivery of DOX using the CD44/PD-L1 aptamosome. Accordingly, the inhibition of IDO1 in combination with ICD can induce anticancer immune response in the immunoresponsive TME by Aptm [DOX/IDO1].

[9] = test system: 4T1; assay: Cytotoxicity (cell survivability); format: cell-based, mouse; details: 24 hours and 36 hours
Procedure: as §4

[10] = test system: MDA-MB-231 cells; assay: Intracellular distribution of DOX by confocal microscopy; format: cell-based, human
Procedure: (§6) In order to investigate the intracellular distribution of DOX and IDO1 siRNA delivered by the CD44/PD-L1 aptamosome, cells were treated with free DOX, Lipm [DOX/IDO1] and Aptm [DOX/IDO1] and analyzed by confocal microscopy with increasing incubation time. […] Nevertheless, a large amount of DOX was delivered easily by Aptm [DOX/IDO1] with the passage of time, and it was gradually delivered into the nucleus of MDA-MB-231 and 4T1 cells within 2 hours.

[11] = test system: control group liver cells (HepG2); assay: Cytotoxicity (cell survivability); format: cell-based; details: 24 hours and 36 hours
Procedure: as §4

[12] = test system: breast cancer cells; assay: DOX-induced ICD: extracellular ATP release after liposome treatment; format: cell-based
Procedure: Then, DOX-induced ICD was evaluated by monitoring extracellular ATP release and expression of cell surface CRT, which is an ICD marker, and the result is shown in FIG. 14.

[13] = test system: 4T1 tumor; assay: Anticancer efficacy in 4T1 tumor xenograft mice (tumor size); format: in vivo; details: i.v. 4 times with 4-day intervals; DOX 0.3 mg/kg, siRNA 0.35 mg/kg; day 24
Procedure: In addition, the anticancer efficacy of Aptm [DOX/IDO1] in the 4T1 tumor xenograft mice was investigated by measuring the decrease of tumor size, and the result is shown in FIG. 18. After the tumor size grew to 60-80 mm^3, the mice were divided randomly into 5 groups (5 mice per group) and each reagent was intravenously 4 times with 4-day intervals: saline (control group), free DOX (0.3 mg/kg), Lipm [DOX/IDO1], Aptm [DOX/IDO1] and Aptm [DOX/Ctr], each liposome containing the same amount of DOX (0.3 mg/kg) and siRNA (0.35 mg/kg). […] Morbidity was not observed when the mice were treated with Aptm [DOX/IDO1]. In particular, when the mice were treated with Aptm [DOX/Ctr] containing scrambled siRNA instead of IDO1 siRNA, the tumor size decreased by about 37.0% (vs. saline administration) due to decreased effect of inhibiting tumor growth. That is, the delivered IDO siRNA inhibits tumor growth by controlling TME.

[14] = test system: 4T1 cells; assay: Intracellular distribution of DOX by confocal microscopy; format: cell-based, mouse
Procedure: as §6

[15] = test system: IDO1; assay: IDO1 expression level in tumor tissue of 4T1 tumor xenograft mice; format: in vivo; details: day 24
Procedure: as §5

[16] = test system: 4T1 breast cancer cells; assay: Tumor metastasis to the lung in 4T1 tumor-bearing mice (H&E); format: in vivo; details: H&E staining of lung tissue
From the text: Finally, it was investigated whether the administration of Aptm [DOX/IDO1] can inhibit tumor metastasis in 4T1 tumor-bearing mice. For detection of metastatic tumors, tumor tissues from the terminal part of the lung of the mice were stained with hematoxylin and eosin (H&E), and the images are shown in FIG. 21. […] Therefore, it was confirmed that the systemic administration of Aptm [DOX/IDO1] through the blood can inhibit tumor metastasis through targeted delivery of an anticancer drug targeting breast cancer cells.

[17] = test system: MDA-MB-231 cells; assay: IDO1 and PD-L1 expression under IFNγ stimulation; format: cell-based, human
From the text: (§7) ICD-mediated immune response can invalidate the immune evasion mechanism of TME, such as overexpression of the immune checkpoint protein and IDO1. Accordingly, the expression of IDO1 and PD-L1 under IFNγ stimulation was monitored also in MDA-MB-231 and 4T1 cells.
as §3

[18] = test system: 4T1 cells; assay: IDO1 and PD-L1 expression under IFNγ stimulation; format: cell-based, mouse
From the text: as §7, §3

Compound | level of extracellularly released ATP [1] | IDO1 protein and mRNA expression in tumor tissues [2] | tumor growth after vaccination with drug-treated dead 4T1 cells [3] | level of extracellularly released ATP [4] | CRT expression on the cancer cell surface [5] | CRT expression on the cancer cell surface [6] | cell survivability [7] | TNFα secretion in the tumor [8] | cell survivability [9] | time until DOX reached the nucleus [10] | cell survivability [11] | extracellular ATP release [12] | tumor size decrease as compared to saline [13] | time until DOX reached the nucleus [14] | IDO1 expression level in the tumor [15] | metastatic tumor in the lung [16] | expression level of IDO1 ([17]; IFNγ stimulation) | PD-L1 expression on the cell surface ([17]; IFNγ-treated cells) | expression level of IDO1 ([18]; IFNγ stimulation) | PD-L1 expression on the cell surface ([18]; IFNγ-treated cells)
N.N.[Cl][Pt][Cl] [CIS, cisplatin] | did not increase the level of extracellular ATP | increased expression of IDO1 protein and mRNA | did not inhibit tumor growth significantly | did not increase the level of extracellular ATP | did not increase the CRT expression on the cancer cell surface | did not increase the CRT expression on the cancer cell surface | – | – | – | – | – | – | – | – | – | – | – | – | – | –
COc1cccc2c1C(=O)c1c(O)c3c(c(O)c1C2=O)C[C@@](O)(C(=O)CO)C[C@@H]3O[C@H]1C[C@H](N)[C@H](O)[C@H](C)O1 [DOX, doxorubicin] | increased gradually with the concentration of DOX | highest IDO1 protein and mRNA expression | effectively inhibited tumor growth | increased gradually with the concentration of DOX | increased gradually as the concentration of DOX increased | increased gradually as the concentration of DOX increased | lowest | relatively low TNFα secretion | lowest | up to 1 hour | lowest | A large amount of ATP was released | did not reduce tumor size enough | up to 1 hour | increased | extensive filtration of 4T1 breast cancer cells was observed in the lung | – | – | – | –
IFNγ: cytokine used to stimulate IDO1 and PD-L1 expression in cancer cells | – | – | – | – | – | – | – | – | – | – | – | – | – | – | – | – | significantly upregulated | highly expressed | significantly upregulated | highly expressed
